Biological target: T1, Androgen Receptor (AR) protein (Homo sapiens, UniProt P10275, T878A)
T1 construct: endogenous in cells; host or cells: LNCaP
Assay: Androgen Receptor (AR) protein degradation assay in LNCaP cells, western blotting
Format: cell-based
Conditions: 20 h; for inhibition at 0.01 µM: 0.01 μM compound; for inhibition at 0.1 µM: 0.1 μM compound; for inhibition at 1 µM: 1 μM compound; for inhibition at 10 µM: 10 μM compound
Procedure: Experimental Example 1: Androgen Receptor (AR) Protein Degradation Assay
After treating LNCaP cells with the synthesized Example compound, the amount of AR protein present in the cells was measured. The amount of AR protein was measured using western blotting detection method. The protocol of the experiment using LNCaP cells was as follows:
[Culture] LNCaP cells were resuspended in RPMI1640 MEDIUM (Hyclone, SH30027.01), 10% FBS (Hyclone, SV30207.02), and 1% Penicillin-streptomycin (Welgene, LS 202-02) media to be 3×10^5/mL. Then, 1 mL each was seeded in a 12-well plate. After that, they were cultured for 3 days.
[Compound treatment] 10 μl of 0.1, 1, 10, and 100 μM compound, which is the final compound treatment concentration and a 100× stock of 0.001, 0.01, 0.1, and 1 μM, was added in 1 ml media of each well, and 20 hours later, the cells were harvested.
[Cell Lysis] Cell pellets were suspended using 1% SDS lysis buffer (50 mM Tris, 1 mM EDTA, 1% SDS, pH 8.0, 0.5 mM PMSF, 1× Protease/Phosphatase inhibitor Cocktail (Cell Signaling Technology, 5872s)), and sonication (70% AMP, 5 cycles (30 sec ON/59 sec OFF)) was performed. Cell lysate was obtained after centrifugation at 4° C., 15000 g, for 20 minutes.
[Protein quantification] A BCA protein assay (SMART™ BCA Protein Assay Kit, iNtRON Biotechnology, 21071) was performed using a 96-well microplate. After adding 5 μl cell lysate and 5 μl 1% SDS lysis buffer to each well of the 96-well plate, 200 μl of BCA reagent (Reagent A:Reagent B=50:1) was additionally added. After incubation at 37° C. for 30 minutes, it was cooled at room temperature for 10 minutes. Then, absorbance was measured at a wavelength of 562 nm. The unknown protein concentration was measured using a BSA standard curve (0, 0.125, 0.25, 0.5, 1, 2 mg/ml). Western blotting samples were prepared by mixing cell lysate, 1% SDS lysis buffer, 4× Bolt™ LDS Sample buffer (Invitrogen, B0008), and 10× Bolt™ Sample Reducing Agent (Invitrogen, B0009) and boiling the mixture at 70° C. for 10 minutes.
[Electrophoresis] After loading 8 μg of protein sample into each well of Bolt™ 4 to 12%, Bis-Tris, 1.0 mm Mini Protein Gel, 17-well (Invitrogen, NW04127BOX), Bolt™ MES SDS Running Buffer (Invitrogen, B0002) was used for electrophoresis at 200V (constant V) for 50 minutes.
[Transfer] Using electrophoresis gel and Trans-Blot® Turbo™ Transfer Starter System (Bio-RAD, #17001918, Mini Nitrocellulose), transfer proceeded for 15 minutes under the condition of 1.3A (Constant A) and 25V (Limit V). To confirm protein transfer, 15 ml of Ponceau S solution (Sigma, P7170-1L) was used for staining for 1 minute, followed by washing to confirm the degree of transfer.
[Blocking] Membranes for AR detection were blocked for 45 minutes with 5% skim milk/0.2% TBST (Skim milk: BD, 232100/20× TBS: Biosesang, TR2008-100-00/10% Tween 20 Solution: Bio-RAD, #161-0781). Membranes for GAPDH and β-actin detection were blocked for 45 minutes with Odyssey blocking buffer: 0.1% TBST=1:1 (Odyssey blocking buffer: Li-COR Biosciences, 927-50000).
[Antibody and detection] The primary AR antibody (Androgen Receptor: CST, 5153s) was mixed with 5% skim milk/0.2% TBST at a ratio of 1:1000 and attached for 3 hours at room temperature. Primary β-actin antibody (GeneTex, 629630) was mixed with 5% BSA/0.2% TBST at a ratio of 1:2000 and attached for 3 hours at room temperature. Primary GAPDH antibody (GeneTex, 100118) was mixed with 5% BSA/0.2% TBST at a ratio of 1:2000 and attached for 3 hours at room temperature. After 3 hours, it was washed 3 times every 5 minutes using TBST (0.2% Tween 20). Anti-rabbit IgG, HRP-linked Antibody (CST, 7074s), secondary antibody for the AR antibody was mixed with 5% skim milk/0.2% TBST at a ratio of 1:5000 and attached for 45 minutes at room temperature. […]

T1 sequence (P10275 whole entry T878A): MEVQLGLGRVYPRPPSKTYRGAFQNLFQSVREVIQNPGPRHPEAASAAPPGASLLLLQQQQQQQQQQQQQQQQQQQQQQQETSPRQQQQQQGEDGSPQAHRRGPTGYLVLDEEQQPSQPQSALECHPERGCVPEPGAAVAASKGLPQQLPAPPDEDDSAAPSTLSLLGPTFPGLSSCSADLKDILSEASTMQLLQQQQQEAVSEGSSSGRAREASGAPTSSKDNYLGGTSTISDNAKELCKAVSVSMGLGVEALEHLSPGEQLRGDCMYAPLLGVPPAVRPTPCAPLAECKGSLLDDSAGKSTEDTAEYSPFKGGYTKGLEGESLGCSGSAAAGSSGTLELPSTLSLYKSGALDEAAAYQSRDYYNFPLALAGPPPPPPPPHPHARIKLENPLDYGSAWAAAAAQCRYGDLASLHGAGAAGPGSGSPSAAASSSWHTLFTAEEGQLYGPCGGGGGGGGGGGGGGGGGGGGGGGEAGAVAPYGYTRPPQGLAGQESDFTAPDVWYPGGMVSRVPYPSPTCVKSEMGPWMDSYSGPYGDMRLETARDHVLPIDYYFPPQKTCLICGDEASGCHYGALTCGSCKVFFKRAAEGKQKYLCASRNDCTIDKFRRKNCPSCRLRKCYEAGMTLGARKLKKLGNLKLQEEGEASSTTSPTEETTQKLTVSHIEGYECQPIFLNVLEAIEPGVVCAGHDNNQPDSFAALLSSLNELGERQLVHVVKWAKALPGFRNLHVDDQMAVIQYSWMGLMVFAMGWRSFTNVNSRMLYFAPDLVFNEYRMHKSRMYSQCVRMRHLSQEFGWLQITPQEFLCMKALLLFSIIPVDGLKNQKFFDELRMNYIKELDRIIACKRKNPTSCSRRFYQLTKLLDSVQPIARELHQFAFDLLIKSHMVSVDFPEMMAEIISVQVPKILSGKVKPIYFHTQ
T1 sequence (Q96SW2 whole entry partner): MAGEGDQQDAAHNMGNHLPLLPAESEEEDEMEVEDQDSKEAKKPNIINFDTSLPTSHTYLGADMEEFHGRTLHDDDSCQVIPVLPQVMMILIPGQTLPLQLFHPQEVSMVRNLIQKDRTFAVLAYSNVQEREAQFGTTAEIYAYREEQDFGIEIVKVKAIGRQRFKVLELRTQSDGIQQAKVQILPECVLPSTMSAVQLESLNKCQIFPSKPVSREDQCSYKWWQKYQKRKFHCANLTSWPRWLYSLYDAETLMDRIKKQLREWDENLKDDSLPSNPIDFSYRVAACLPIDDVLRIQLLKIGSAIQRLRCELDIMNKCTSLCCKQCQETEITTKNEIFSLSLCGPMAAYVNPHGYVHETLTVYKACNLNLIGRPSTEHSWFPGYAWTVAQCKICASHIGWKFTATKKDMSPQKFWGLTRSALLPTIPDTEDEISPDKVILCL

SMILES	inhibition at 0.01 µM [%]	inhibition at 0.1 µM [%]	inhibition at 1 µM [%]	inhibition at 10 µM [%]
N#Cc1ccc(N2CCC(C(=O)Nc3ccc(N4CCC(CN5CCN(c6ccc7c(c6)C(=O)N(C6CCC(=O)NC6=O)C7=O)CC5)CC4)cn3)CC2)cc1C(F)(F)F (stereo not drawn) [Example 1, 1-(4-cyano-3-(trifluoromethyl)phenyl)-N-(5-(4-((4-(2-(2,6-dioxopiperidin-3-yl)-1,3-dioxoisoindolin-5-yl)piperazin-1-yl)methyl)piperidin-1-yl)pyridin-2-yl)piperidine-4-carboxamide]	55	98	99	99
N#Cc1ccc(N2CCC(C(=O)Nc3ccc(N4CCC(CN5CCN(c6ccc7c(c6)C(=O)N(C6CCC(=O)NC6=O)C7=O)CC5)CC4)cn3)CC2)cc1Cl (stereo not drawn) [Example 2, 1-(3-chloro-4-cyanophenyl)-N-(5-(4-((4-(2-(2,6-dioxopiperidin-3-yl)-1,3-dioxoisoindolin-5-yl)piperazin-1-yl)methyl)piperidin-1-yl)pyridin-2-yl)piperidine-4-carboxamide]	-9	68	97	96
N#Cc1ccc(N2CCC(C(=O)Nc3ccc(N4CCC(CN5CCN(CCOc6ccc7c(c6)C(=O)N(C6CCC(=O)NC6=O)C7=O)CC5)CC4)cn3)CC2)cc1C(F)(F)F (stereo not drawn) [Example 3, 1-(4-cyano-3-(trifluoromethyl)phenyl)-N-(5-(4-((4-(2-((2-(2,6-dioxopiperidin-3-yl)-1,3-dioxoisoindolin-5-yl)oxy)ethyl)piperazin-1-yl)methyl)piperidin-1-yl)pyridin-2-yl)piperidine-4-carboxamide]	45	98	96	
N#Cc1ccc(N2CCC(C(=O)Nc3ccc(N4CCC(CN5CCN(Cc6ccc7c(c6)C(=O)N(C6CCC(=O)NC6=O)C7=O)CC5)CC4)cn3)CC2)cc1C(F)(F)F (stereo not drawn) [Example 4, 1-(4-cyano-3-(trifluoromethyl)phenyl)-N-(5-(4-((4-((2-(2,6-dioxopiperidin-3-yl)-1,3-dioxoisoindolin-5-yl)methyl)piperazin-1-yl)methyl)piperidin-1-yl)pyridin-2-yl)piperidine-4-carboxamide]	24	86	96	
N#Cc1ccc(N2CCC(C(=O)Nc3ccc(N4CCC(CN5CCN(C(=O)CNc6ccc7c(c6)C(=O)N(C6CCC(=O)NC6=O)C7=O)CC5)CC4)cn3)CC2)cc1C(F)(F)F (stereo not drawn) [Example 5, 1-(4-cyano-3-(trifluoromethyl)phenyl)-N-(5-(4-((4-((2-(2,6-dioxopiperidin-3-yl)-1,3-dioxoisoindolin-5-yl)glycyl)piperazin-1-yl)methyl)piperidin-1-yl)pyridin-2-yl)piperidine-4-carboxamide]	82	97	97	97
N#Cc1ccc(N2CCC(C(=O)Nc3ccc(N4CCC(CN5CCN(CC6CCN(c7ccc8c(c7)C(=O)N(C7CCC(=O)NC7=O)C8=O)CC6)CC5)CC4)cn3)CC2)cc1Cl (stereo not drawn) [Example 7, 1-(3-chloro-4-cyanophenyl)-N-(5-(4-((4-((1-(2-(2,6-dioxopiperidin-3-yl)-1,3-dioxoisoindolin-5-yl)piperidin-4-yl)methyl)piperazin-1-yl)methyl)piperidin-1-yl)pyridin-2-yl)piperidine-4-carboxamide]	87	99	99	94
N#Cc1ccc(N2CCC(F)(C(=O)Nc3ccc(N4CCC(CN5CCN(CC6CCN(c7ccc8c(c7)C(=O)N(C7CCC(=O)NC7=O)C8=O)CC6)CC5)CC4)cn3)CC2)cc1C(F)(F)F (stereo not drawn) [Example 8, 1-(4-cyano-3-(trifluoromethyl)phenyl)-N-(5-(4-((4-((1-(2-(2,6-dioxopiperidin-3-yl)-1,3-dioxoisoindolin-5-yl)piperidin-4-yl)methyl)piperazin-1-yl)methyl)piperidin-1-yl)pyridin-2-yl)-4-fluoropiperidine-4-carboxamide]	37	87	95	
N#Cc1ncc(N2CCC(C(=O)Nc3ccc(N4CCC(CN5CCN(CC6CCN(c7ccc8c(c7)C(=O)N(C7CCC(=O)NC7=O)C8=O)CC6)CC5)CC4)cn3)CC2)cc1C(F)(F)F (stereo not drawn) [Example 9, 1-(6-cyano-5-(trifluoromethyl)pyridin-3-yl)-N-(5-(4-((4-((1-(2-(2,6-dioxopiperidin-3-yl)-1,3-dioxoisoindolin-5-yl)piperidin-4-yl)methyl)piperazin-1-yl)methyl)piperidin-1-yl)pyridin-2-yl)piperidine-4-carboxamide]	62	95	95	
N#Cc1ncc(N2CCC(F)(C(=O)Nc3ccc(N4CCC(CN5CCN(CC6CCN(c7ccc8c(c7)C(=O)N(C7CCC(=O)NC7=O)C8=O)CC6)CC5)CC4)cn3)CC2)cc1C(F)(F)F (stereo not drawn) [Example 10, 1-(6-cyano-5-(trifluoromethyl)pyridin-3-yl)-N-(5-(4-((4-((1-(2-(2,6-dioxopiperidin-3-yl)-1,3-dioxoisoindolin-5-yl)piperidin-4-yl)methyl)piperazin-1-yl)methyl)piperidin-1-yl)pyridin-2-yl)-4-fluoropiperidine-4-carboxamide]	9	52	74	
N#Cc1ccc(N2CCC(C(=O)Nc3ccc(N4CCC(CN5CCN(CC6CN(c7ccc8c(c7)C(=O)N(C7CCC(=O)NC7=O)C8=O)C6)CC5)CC4)cn3)CC2)cc1C(F)(F)F (stereo not drawn) [Example 11, 1-(4-cyano-3-(trifluoromethyl)phenyl)-N-(5-(4-((4-((1-(2-(2,6-dioxopiperidin-3-yl)-1,3-dioxoisoindolin-5-yl)azetidin-3-yl)methyl)piperazin-1-yl)methyl)piperidin-1-yl)pyridin-2-yl)piperidine-4-carboxamide]	76	97	97	93
N#Cc1ccc(N2CCC(C(=O)Nc3ccc(N4CCC(CN5CCN(CC6CN(c7ccc8c(c7)C(=O)N(C7CCC(=O)NC7=O)C8=O)C6)CC5)CC4)cn3)CC2)cc1Cl (stereo not drawn) [Example 12, 1-(3-chloro-4-cyanophenyl)-N-(5-(4-((4-((1-(2-(2,6-dioxopiperidin-3-yl)-1,3-dioxoisoindolin-5-yl)azetidin-3-yl)methyl)piperazin-1-yl)methyl)piperidin-1-yl)pyridin-2-yl)piperidine-4-carboxamide]	52	95	97	94
N#Cc1ccc(N2CCC(C(=O)Nc3ccc(N4CCC(CN5CCN(CC6CCN(c7cccc8c7C(=O)N(C7CCC(=O)NC7=O)C8=O)CC6)CC5)CC4)cn3)CC2)cc1C(F)(F)F (stereo not drawn) [Example 13, 1-(4-cyano-3-(trifluoromethyl)phenyl)-N-(5-(4-((4-((1-(2-(2,6-dioxopiperidin-3-yl)-1,3-dioxoisoindolin-4-yl)piperidin-4-yl)methyl)piperazin-1-yl)methyl)piperidin-1-yl)pyridin-2-yl)piperidine-4-carboxamide]	59	91	94	

From patent US12122763B2, “Substituted piperidines for androgen receptor degradation” (UBIX THERAPEUTICS, INC., priority 2020, dated 2024)
